These results are taken from BindingDB's records for doi:10.1021/jm030061i (University of Connecticut, 2003).

The target of test [1] is hypoxanthine phosphoribosyltransferase (Trypanosoma cruzi). The test is described as follows: Kinetic inhibition constant of compound with Trypanosoma cruzi Hypoxanthine Phosphoribosyltransferase (HPRT).
The target of test [2] is hypoxanthine phosphoribosyltransferase (Salmonella typhimurium). The test is described as follows: Kinetic inhibition constant of compound with bacterial Hypoxanthine Phosphoribosyltransferase (HPRT).

Molecules are shown by their SMILES.

The term Ki denotes the equilibrium dissociation constant of an inhibitor or competing ligand from its target. Lower therefore signals a stronger hold on the target. Take `O=[N+]([O-])c1cc2c3ccccc3ccc2c2ccccc12` [6-Nitro-chrysene]: the affinity in test [1] corresponds to a Ki of 6.7 µM. That is a single-digit micromolar value.

For `O=C(Nc1cc2c3ccccc3ccc2c2ccccc12)C(Cl)Cl` [2,2-Dichloro-N-chrysen-6-yl-acetamide], the inhibition constant Ki in test [2] is > 25 µM; in test [1], 0.5 µM.

In test [1], `Fc1cc2c3ccccc3ccc2c2ccccc12` [6-Fluoro-chrysene] came in with a Ki of 2.8 µM. The same measure, in the same setting: the figure for `Nc1cc2c3ccccc3ccc2c2ccccc12` [Chrysen-6-ylamine] is 0.6 µM.
